Here are results for eight compounds from PubChem BioAssay (NCI).

Among the test systems are EKVX NSCLC; T-47D breast; SK-MEL-28 melanoma; HOP-62 NSCLC; RPMI-8226 leukemia; HS 578T breast; BT-549 breast; IGROV1 ovarian; MCF7 breast; UACC-257 melanoma; ACHN renal; MDA-MB-231 breast; LOX IMVI melanoma; PC-3 prostate; UACC-62 melanoma; UO-31 renal; DU-145 prostate; NCI-H522 lung.
Assay in all cases: NCI-60 cell line screen, 48 h

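Briefly, cells in 96-well plates were exposed to five compound concentrations for 48 h, and endpoints were estimated by linear interpolation. TGI: concentration producing complete growth inhibition.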 Some results are limits rather than exact numbers.

For `CC1=NN(c2nc(N)nc(CSc3nc4n(c(=S)n3)CCN4)n2)C(C)(C)C1`, the TGI in the assay with EKVX NSCLC is above 100 µM; in the assay on T-47D breast, 54.1 µM; with SK-MEL-28 melanoma it was above 100 µM; in the assay on HOP-62 NSCLC, 27.9 µM; in the assay on RPMI-8226 leukemia it was above 100 µM; in the assay on HS 578T breast it was 41.3 µM. Moreover, the TGI with BT-549 breast is above 100 µM; in the assay on IGROV1 ovarian it was 51.5 µM; in the assay with MCF7 breast, above 100 µM; in the assay with UACC-257 melanoma, above 100 µM; in the assay on ACHN renal it was above 100 µM; in the assay with MDA-MB-231 breast, above 100 µM. In addition, the TGI with LOX IMVI melanoma, with PC-3 prostate and in the assay on UACC-62 melanoma was above 100 µM throughout.
As for `COc1cc2c(cc1OC)C(=O)/C(=C/c1ccc(Cl)cc1)CC2`, the TGI in the assay with EKVX NSCLC, in the assay on T-47D breast, in the assay with SK-MEL-28 melanoma, with HOP-62 NSCLC, in the assay with RPMI-8226 leukemia and in the assay on HS 578T breast was above 10 µM each time. Besides, the TGI in the assay with BT-549 breast, in the assay on UO-31 renal, in the assay with IGROV1 ovarian, in the assay with MCF7 breast, in the assay on UACC-257 melanoma and with ACHN renal was above 10 µM in each case. Besides, the TGI with MDA-MB-231 breast, in the assay on DU-145 prostate, in the assay on LOX IMVI melanoma, with PC-3 prostate and in the assay on UACC-62 melanoma was above 10 µM each time.
Turning to `CC(C)OCC1CC(CC(=O)Nc2nncs2)C(=O)O1` (stereo not drawn), the TGI with EKVX NSCLC, in the assay with T-47D breast, in the assay with SK-MEL-28 melanoma, in the assay with HOP-62 NSCLC, in the assay on RPMI-8226 leukemia and in the assay with HS 578T breast was above 100 µM in each case. In addition, the TGI in the assay with BT-549 breast, in the assay with UO-31 renal, in the assay on IGROV1 ovarian, with MCF7 breast, in the assay with UACC-257 melanoma and in the assay with ACHN renal was above 100 µM throughout. Also, the TGI in the assay with MDA-MB-231 breast, in the assay on DU-145 prostate, with LOX IMVI melanoma, in the assay on PC-3 prostate and with UACC-62 melanoma was above 100 µM in each case.
`O=c1ccn([C@@H]2C[C@@H]2CO)c(=O)[nH]1`: the TGI in the assay on EKVX NSCLC, in the assay with T-47D breast, with SK-MEL-28 melanoma, in the assay with HOP-62 NSCLC, in the assay with RPMI-8226 leukemia and in the assay with HS 578T breast was above 100 µM each time. Further, the TGI in the assay with BT-549 breast, in the assay on UO-31 renal, with IGROV1 ovarian, with MCF7 breast, with UACC-257 melanoma and with ACHN renal was above 100 µM in each case. The TGI with NCI-H522 lung, with DU-145 prostate, in the assay on LOX IMVI melanoma, in the assay on PC-3 prostate and in the assay with UACC-62 melanoma was above 100 µM in each case.
For `CC[C@]1(Cc2ccc(OC)c(OC)c2)C=[N+]([O-])O[C@H](OC2CCCC2(c2ccccc2)c2ccccc2)[C@@H]1OC(C)=O` (stereo partly drawn), the TGI in the assay with EKVX NSCLC stood at 25.3 µM; in the assay on T-47D breast, 12.4 µM; in the assay with SK-MEL-28 melanoma, 4.81 µM; with HOP-62 NSCLC it was 29.4 µM; in the assay with HS 578T breast, 46.5 µM; in the assay with BT-549 breast, 27.9 µM. Moreover, the TGI worked out at 12.6 µM in the assay on UO-31 renal; 10.6 µM in the assay with IGROV1 ovarian; 8 µM in the assay with MCF7 breast; 19.2 µM with UACC-257 melanoma; 10.2 µM in the assay with ACHN renal; 9.77 µM with NCI-H522 lung. Also, the TGI was above 41.3 µM in the assay with MDA-MB-231 breast; 13.1 µM in the assay with DU-145 prostate; 6.47 µM in the assay with LOX IMVI melanoma; 18.4 µM in the assay on PC-3 prostate; 12.7 µM with UACC-62 melanoma.
Consider `CN(C)C(=S)/N=c1\ssc(=S)n1Cc1ccccc1`, for which the TGI with EKVX NSCLC is 57.6 µM; in the assay with T-47D breast it was above 31.6 µM; with SK-MEL-28 melanoma, above 63.1 µM; in the assay with HOP-62 NSCLC, 20.7 µM; with RPMI-8226 leukemia, 31.6 µM; with BT-549 breast, above 100 µM. Besides, the TGI with UO-31 renal is 54 µM; in the assay with IGROV1 ovarian it was above 46.4 µM; in the assay on MCF7 breast, above 46.4 µM; in the assay with UACC-257 melanoma, above 56.2 µM; with ACHN renal it was above 56.2 µM; in the assay with NCI-H522 lung it was 0.617 µM. Moreover, the TGI is 42.6 µM with MDA-MB-231 breast; 21.7 µM with DU-145 prostate; above 63.1 µM in the assay with LOX IMVI melanoma; 35.5 µM in the assay with PC-3 prostate; 16.8 µM with UACC-62 melanoma.
As to `Cc1ccc(/C=C/c2nnc(N/N=C/c3ccc4c(c3)OCO4)[nH]c2=O)cc1`, the TGI in the assay with EKVX NSCLC is above 100 µM; in the assay on T-47D breast, above 100 µM; in the assay on SK-MEL-28 melanoma, 30.9 µM; in the assay with HOP-62 NSCLC it was 33.7 µM; in the assay with RPMI-8226 leukemia it was above 100 µM; in the assay with HS 578T breast, 34.6 µM. Moreover, the TGI in the assay on BT-549 breast is 33.9 µM; with UO-31 renal, above 100 µM; in the assay with IGROV1 ovarian, 41.8 µM; in the assay on MCF7 breast, 51.2 µM; with UACC-257 melanoma, above 100 µM; with ACHN renal it was 65.6 µM. Further, the TGI in the assay on NCI-H522 lung is above 100 µM; in the assay with MDA-MB-231 breast, 29.9 µM; in the assay on DU-145 prostate, 38.7 µM; with LOX IMVI melanoma, 37.7 µM; in the assay with PC-3 prostate, 43.3 µM.
In the case of `Cc1cc(N(CCC#N)CCC#N)ccc1/C(N=Nc1ccc(C(=O)O)cc1)=N\NC(=O)c1cc(Cl)ccc1O`, the TGI in the assay on EKVX NSCLC was above 100 µM; with T-47D breast it was above 100 µM; with HOP-62 NSCLC, 65.4 µM; with RPMI-8226 leukemia it was above 100 µM; with HS 578T breast it was 47.1 µM; with BT-549 breast, above 100 µM. For the same compound, the TGI in the assay on UO-31 renal is 68 µM; in the assay on IGROV1 ovarian it was 59 µM; in the assay on MCF7 breast, above 100 µM; in the assay with UACC-257 melanoma, above 100 µM; with ACHN renal, above 100 µM; in the assay on NCI-H522 lung it was 35.9 µM. Moreover, the TGI was 63.1 µM in the assay with MDA-MB-231 breast, above 100 µM in the assay with DU-145 prostate, above 100 µM with PC-3 prostate and above 100 µM in the assay on UACC-62 melanoma.
